These results are taken from PubChem BioAssay (NCI).

Several values for one entry are separate records, joined by “and”; a condition that tells them apart may be missing. Identical values can stand only once.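 Dose response: 5 concentrations. Exposure: 48 h. Format: 96-well plates. Endpoint: linear interpolation; highest concentration if not reached. At the GI50, growth is halved. At the TGI there is no net growth.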

What all share (experiment): growth of human tumour cells (NCI), 48 h
Assay [1] deals with A498 renal.
Assay [2] relates to A549 NSCLC.
Assay [3] deals with DU-145 prostate.
The test system of assay [4] is HS 578T breast.
In assay [5] the test system is KM12 colon.
Assay [6] concerns MCF7 breast.
Assay [7] has as its system NCI-H226 lung.
The subject of assay [8] is SF-539 CNS.
Assay [9] concerns SK-MEL-28 melanoma.
Assay [10] relates to SK-OV-3 ovarian.

Take `CCC1(N)C(=O)OCc2c1cc1n(c2=O)Cc2cc3ccccc3nc2-1` (stereo not given): the GI50 in [1] is 10.6 µM; in [2], 5.05 µM; in assay [3], 5.79 µM; in [4], greater than 69.6 µM; in assay [5], 26.1 µM; in assay [6] it was 2.82 µM. Moreover, the GI50 in assay [7] was 2.71 µM; in assay [8] it was 2.93 µM; in [9], 41.7 µM; in assay [10] it was 8.99 µM. For the same compound, the TGI in [1] is 34.4 µM and 46.2 µM; in assay [2], greater than 100 µM; in assay [3] it was > 68.7 µM and 21.2 µM; in assay [4], greater than 100 µM; in assay [5], greater than 100 µM; in assay [6] it was greater than 100 µM. Besides, the TGI in assay [7] was 34.3 µM and 97.1 µM; in [8], 11.8 µM and > 47.9 µM; in [9] it was greater than 100 µM; in assay [10], 72 µM and > 100 µM.

Regarding `CC(C)=CCc1c(O)c(C(=O)CC(C)C)c(O)c2c(-c3ccccc3)cc(=O)oc12`, the GI50 in assay [1] was 7.4 µM; in [2], 12 µM; in [3], 15.5 µM; in assay [4] it was 9.75 µM; in assay [5], 12 µM; in [6], 11.8 µM. Moreover, the GI50 was 16.4 µM in assay [7], 5.82 µM in assay [8], 2.94 µM in [9] and 10.3 µM in assay [10]. Moreover, the TGI was 28.8 µM in assay [1]; greater than 50 µM in assay [2]; greater than 50 µM in [3]; 49.9 µM in assay [4]; greater than 50 µM in [5]; greater than 50 µM in assay [6]. In addition, the TGI in assay [7] was greater than 50 µM; in assay [8], 22.5 µM; in [9], greater than 50 µM; in [10], 35.1 µM.

`O=C(Nc1ccc(N2CCNCC2)cn1)c1[nH]ncc1Nc1ncnc2sccc12`: the GI50 in assay [1] is 13.4 µM; in [2], 1.66 µM; in [3], 3.57 µM; in [4], 2.86 µM; in [5], 3.31 µM; in assay [6] it was 1.71 µM. Further, the GI50 was 2.62 µM in assay [7], 1.69 µM in assay [8], 1.95 µM in assay [9] and 10.6 µM in assay [10]. Further, the TGI was 31.5 µM in assay [1]; 3.45 µM in [2]; 12.2 µM in [3]; 14.2 µM in assay [4]; 11.5 µM in assay [5]; 4.17 µM in assay [6]. The TGI in assay [7] is 9.05 µM; in assay [8] it was 3.39 µM; in [9] it was 3.83 µM; in assay [10], 25.7 µM.

Turning to `CCCCCCC/C=C1\CCC(CN(C)C)C1=O` (stereo not given), the TGI in [1] was 35.6 µM; in [2], 50 µM; in assay [3], 27.8 µM; in assay [4] it was greater than 100 µM; in assay [5] it was 13.9 µM; in assay [6], 16.4 µM. For the same compound, the TGI in [7] came out at 48.4 µM; in assay [8], 32.7 µM; in assay [9], 31 µM; in [10] it was 43 µM.

Take `CCCC(=O)Nc1c(I)cc(I)c(CC(CC)C(=O)O)c1I` (stereo not given): the GI50 in assay [1], in assay [2], in [3], in [4], in assay [5] and in [6] was greater than 100 µM in each case. Besides, the GI50 in [7], in assay [8], in assay [9] and in assay [10] was greater than 100 µM each time. In addition, the TGI in assay [1], in [2], in assay [3], in assay [4], in assay [5] and in [6] was greater than 100 µM throughout. For the same compound, the TGI in [7], in [8], in assay [9] and in assay [10] was greater than 100 µM throughout.

`COc1ccc(C(=O)c2cc(C)c(OC)c(C)c2)c(OC)c1N(C(=O)CCl)C(=O)CCl`: the GI50 in assay [1] was 0.0244 µM; in [2], 0.0834 µM; in assay [3], 0.0388 µM; in assay [4], 0.0333 µM; in assay [5], 0.0421 µM; in [6] it was 0.0657 µM. Besides, the GI50 in [7] is 0.0562 µM; in assay [8], 0.0302 µM; in assay [9] it was 0.168 µM; in assay [10] it was 0.0514 µM. The TGI in assay [1] is 0.103 µM; in assay [2] it was greater than 100 µM; in assay [3], 16.8 µM; in [4], greater than 100 µM; in assay [5] it was 6.07 µM; in assay [6] it was greater than 38.6 µM. Moreover, the TGI in [7] is 4.22 µM; in assay [8], 0.141 µM; in assay [9], 25.3 µM; in assay [10], greater than 83.8 µM.

On to `COc1ccccc1N1CCN(CCCOc2ccc(C(=O)/C=C3/C(=O)Nc4ccccc43)cc2)CC1`, for which the GI50 in [1] was 19.3 µM; in assay [2], 22.1 µM; in assay [3] it was 15 µM; in assay [4], 22.5 µM; in [5], 8.2 µM; in assay [6] it was 7.17 µM. Also, the GI50 in assay [7] is 14.3 µM; in assay [8] it was 15.8 µM; in assay [9] it was 14.6 µM; in assay [10] it was 28.2 µM. For the same compound, the TGI in [1] was 70.5 µM; in assay [2], greater than 100 µM; in assay [3], 38.1 µM; in [4] it was greater than 52.7 µM; in assay [5], 24.8 µM; in assay [6], 31.8 µM. Further, the TGI in assay [7] was 65.7 µM; in assay [8] it was 40.4 µM; in assay [9], 33.4 µM; in [10], greater than 100 µM.
